Laboratory results reported in PMC2774234 (Molecular cancer research : MCR, 2009).

Test system: Prx1
Assay: Immunoblot of Prx1 after transient Prx1 siRNA transfection of LNCaP cells
Type: cell-based, human
Details: 75 nM siRNA

## 11838: Ambion siRNA directed against exon 6 of Prx1; sense 5'-GGCUACUGGUUUGUAUGAUTT-3' (antisense AUCAUACAAACCAGUAGCCTG; chemistry not given here) [compound 11838]
  expression of Prx1 (immunoblot): essentially abolished the expression of Prx1
